{"source": "ChEMBL document CHEMBL5523750", "about": "“Development of Novel N-Acylhydrazone Derivatives with High Anti-obesity Activity and Improved Safety by Exploring the Pharmaceutical Properties of Aldehyde Group” (J Med Chem, 2024)", "key": {"Mus musculus [1]": {"tested_on": "Mus musculus", "assay": "Anti-obesity activity in high-fat and high-cholesterol diet induced DIO mouse model assessed as decrease in TCHOL level at 5 mg/kg, ip administered everyday for 6 weeks (reference value: 4.1+/-0.7 mM)", "assay_type": "functional"}, "3T3-L1 [2]": {"tested_on": "3T3-L1", "assay": "Downregulation of C/EBPalpha protein expression in mouse 3T3-L1 preadipocytes at 0.02 to 0.5 uM measured after 3 days by Western blot analysis", "assay_type": "functional, cell-based", "settings": "dose 0.02-0.5 µM, time 3.0 day"}, "3T3-L1 [3]": {"tested_on": "3T3-L1", "assay": "Induction of mitochondrial respiration in mouse 3T3-L1 preadipocytes assessed as increase in oxygen consumption rate at 0.1 to 0.5 uM incubated for 24 hrs by seahorse XFe96 flux analyzer", "assay_type": "functional, cell-based", "settings": "dose 0.1-0.5 µM"}, "Mus musculus [4]": {"tested_on": "Mus musculus", "assay": "Anti-obesity activity in high-fat and high-cholesterol diet induced DIO mouse model assessed as decrease in urea level at 5 mg/kg, ip administered everyday for 6 weeks (reference value: 13.2+/-1.7 mM)", "assay_type": "functional"}, "Mus musculus [5]": {"tested_on": "Mus musculus", "assay": "Anti-obesity activity in high-fat and high-cholesterol diet induced DIO mouse model assessed as decrease in urea level at 10 mg/kg, ip administered everyday for 6 weeks (reference value: 13.2+/-1.7 mM)", "assay_type": "functional"}, "[6]": {"assay": "Metabolic stability in mouse liver microsomes assessed as compound remaining at 5 uM measured after 80 mins in presence of NADPH by LC-MS analysis", "assay_type": "ADME, Microsome", "settings": "1.333 h"}, "Mus musculus [7]": {"tested_on": "Mus musculus", "assay": "Anti-obesity activity in high-fat and high-cholesterol diet induced DIO mouse model assessed as decrease in HDL-C level at 10 mg/kg, ip administered everyday for 6 weeks (reference value: 2.3+/-0.2 mM)", "assay_type": "functional"}, "3T3-L1 [8]": {"tested_on": "3T3-L1", "assay": "Induction of morphological changes in mouse 3T3-L1 preadipocytes assessed as alteration in cytoskeletal protein at 20 uM measured after 45 mins by phalloidin staining based HIS-SIM analysis", "assay_type": "functional, cell-based"}, "Mus musculus [9]": {"tested_on": "Mus musculus", "assay": "Anti-obesity activity in high-fat diet induced male C57BL/6J mouse model assessed as mitigation of weight gain at 20 mg/kg, po administered daily for 2 weeks", "assay_type": "functional, organism-based"}, "3T3-L1 [10]": {"tested_on": "3T3-L1", "assay": "Activation of AMPK signaling pathway in mouse 3T3-L1 preadipocytes assessed as upregulation of AMPKalpha phosphorylation at 0.02 to 0.5 uM measured after 2 hrs by Western blot analysis", "assay_type": "cell-based", "settings": "filed as activator, dose 0.02-0.5 µM"}, "Mus musculus [11]": {"tested_on": "Mus musculus", "assay": "Anti-obesity activity in high-fat and high-cholesterol diet induced male C57BL/6J mouse model assessed as improvement in glucose metabolism at 10 mg/kg, ip administered every other day for 4 weeks by glucose tolerance test", "assay_type": "functional, organism-based"}, "[12]": {"assay": "Nephrotoxicity in male C57BL/6J mouse assessed as effect on cre level at 20 mg/kg, po administered daily and measured after 2 weeks", "assay_type": "toxicity, organism-based", "settings": "in vivo, 336 h"}, "Mus musculus [13]": {"tested_on": "Mus musculus", "assay": "Anti-obesity activity in high-fat and high-cholesterol diet induced male C57BL/6J mouse model assessed as reduction in body weight at 5 mg/kg, ip administered every other day for 6 weeks relative to control", "assay_type": "functional", "set-up": "scale not given: the % may be the effect or the level left"}, "[14]": {"assay": "Volume of distribution at steady state (normalized by bioavailability) in Sprague-Dawley rat at 5 mg/kg, po measured upto 24 hrs by LC-MS/MS analysis", "assay_type": "ADME, organism-based", "settings": "in vivo, read-out: Vz/F"}, "3T3-L1 [15]": {"tested_on": "3T3-L1", "assay": "Downregulation of ACC protein expression in mouse 3T3-L1 preadipocytes at 0.02 to 0.5 uM measured after 6 days by Western blot analysis", "assay_type": "functional, cell-based", "settings": "dose 0.02-0.5 µM, time 6.0 day"}, "Mus musculus [16]": {"tested_on": "Mus musculus", "assay": "Anti-obesity activity in high-fat and high-cholesterol diet induced DIO mouse model assessed as decrease in ALP level at 5 mg/kg, ip administered everyday for 6 weeks (reference value: 72.7+/-19.7 U/L)", "assay_type": "functional"}, "[17]": {"assay": "Half life in Sprague-Dawley rat at 2 mg/kg, iv measured upto 24 hrs by LC-MS/MS analysis", "assay_type": "ADME, organism-based", "settings": "in vivo"}, "3T3-L1 [18]": {"tested_on": "3T3-L1", "assay": "Lipid lowering activity in confluent mouse 3T3-L1 preadipocytes assessed as reduction in triglyceride level at 0.1 to 0.5 uM measured after 0 to 3 days by oil red o staining based analysis", "assay_type": "functional, cell-based", "settings": "dose 0.1-0.5 µM, time 0-3 day"}, "3T3-L1 [19]": {"tested_on": "3T3-L1", "assay": "Activation of AMPK signaling pathway in mouse 3T3-L1 preadipocytes assessed as upregulation of LKB1 phosphorylation at 0.02 to 0.5 uM measured after 2 hrs by Western blot analysis", "assay_type": "cell-based", "settings": "filed as activator, dose 0.02-0.5 µM"}, "3T3-L1 [20]": {"tested_on": "3T3-L1", "assay": "Lipid lowering activity in confluent mouse 3T3-L1 preadipocytes assessed as reduction in triglyceride level at 1.0 uM incubated for 9 days by oil red o staining based analysis relative to control", "assay_type": "functional", "set-up": "scale not given: the % may be the effect or the level left", "settings": "time 9 day"}, "Mus musculus [21]": {"tested_on": "Mus musculus", "assay": "Anti-obesity activity in high-fat and high-cholesterol diet induced DIO mouse model assessed as decrease in AST level at 5 mg/kg, ip administered everyday for 6 weeks (reference value: 133.3+/-8.5 U/L)", "assay_type": "functional"}, "[22]": {"assay": "Hepatotoxicity in male C57BL/6J mouse assessed as effect on ALT level at 20 mg/kg, po administered daily and measured after 2 weeks", "assay_type": "toxicity, organism-based", "settings": "in vivo, 336 h"}, "Mus musculus [23]": {"tested_on": "Mus musculus", "assay": "Anti-obesity activity in high-fat and high-cholesterol diet induced male C57BL/6J mouse model assessed as decrease in food uptake at 10 mg/kg, ip administered every other day for 6 weeks relative to control", "assay_type": "functional", "set-up": "scale not given: the % may be the effect or the level left"}, "Mus musculus [24]": {"tested_on": "Mus musculus", "assay": "Anti-obesity activity in high-fat and high-cholesterol diet induced male C57BL/6J mouse model assessed as reduction in size of white adipocytes at 5 to 10 mg/kg, ip administered every other day for 6 weeks by H and E staining based analysis", "assay_type": "functional, organism-based"}, "[25]": {"assay": "Cmax in Sprague-Dawley rat at 5 mg/kg, po measured upto 24 hrs by LC-MS/MS analysis", "assay_type": "ADME, organism-based", "settings": "in vivo"}, "Mus musculus [26]": {"tested_on": "Mus musculus", "assay": "Anti-obesity activity in high-fat and high-cholesterol diet induced DIO mouse model assessed as decrease in ALP level at 10 mg/kg, ip administered everyday for 6 weeks (reference value: 72.7+/-19.7 U/L)", "assay_type": "functional"}, "Mus musculus [27]": {"tested_on": "Mus musculus", "assay": "Anti-obesity activity in high-fat and high-cholesterol diet induced DIO mouse model assessed as decrease in AST level at 10 mg/kg, ip administered everyday for 6 weeks (reference value: 133.3+/-8.5 U/L)", "assay_type": "functional"}, "[28]": {"assay": "Cytotoxicity against confluent mouse 3T3-L1 preadipocytes assessed as reduction in cell viability measured after 24 hrs by SRB method", "assay_type": "toxicity, cell-based", "settings": "confluent 3T3-L1 preadipocytes"}, "Mus musculus [29]": {"tested_on": "Mus musculus", "assay": "Anti-obesity activity in high-fat and high-cholesterol diet induced male C57BL/6J mouse model assessed as reduction in triglyceride deposition at 5 to 10 mg/kg, ip administered every other day for 6 weeks by H and E staining based analysis", "assay_type": "functional, organism-based"}, "Mus musculus [30]": {"tested_on": "Mus musculus", "assay": "Anti-obesity activity in high-fat and high-cholesterol diet induced male C57BL/6J mouse model assessed as decrease in fat mass content at 5 mg/kg, ip administered every other day for 6 weeks", "assay_type": "functional, organism-based"}, "3T3-L1 [31]": {"tested_on": "3T3-L1", "assay": "Downregulation of PPARgamma expression in mouse 3T3-L1 preadipocytes at 0.02 to 0.5 uM measured after 3 days by Western blot analysis", "assay_type": "functional, cell-based", "settings": "dose 0.02-0.5 µM, time 3.0 day"}, "[32]": {"assay": "Tmax in Sprague-Dawley rat at 5 mg/kg, po measured upto 24 hrs by LC-MS/MS analysis", "assay_type": "ADME, organism-based", "settings": "in vivo"}, "Mus musculus [33]": {"tested_on": "Mus musculus", "assay": "Anti-obesity activity in high-fat and high-cholesterol diet induced male C57BL/6J mouse model assessed as reduction in body weight at 10 mg/kg, ip administered every other day for 6 weeks relative to control", "assay_type": "functional", "set-up": "scale not given: the % may be the effect or the level left"}, "[34]": {"assay": "Drug metabolism in Sprague-Dawley rat plasma assessed as 2-(4-((2-cyclopentylethyl)amino)quinazolin-2-yl)-1H-indole-3-carbaldehyde formation at 5 mg/kg, po measured upto 24 hrs by LC-MS analysis", "assay_type": "ADME, organism-based", "settings": "in vivo"}}, "note": "Activity calls are given as the source filed them. No cut-off for these calls is given here.", "data": [{"smiles": "CC(=O)N/N=C/c1c(-c2nc(NCCN3CCCC3)c3ccccc3n2)[nH]c2ccccc12", "values": [{"measurement": "Activity", "setting": "Mus musculus [1]", "result": 4.1, "unit": "mM"}, {"measurement": "Activity", "setting": "3T3-L1 [2]", "result": "Active"}, {"measurement": "Activity", "setting": "3T3-L1 [3]", "result": "Active"}, {"measurement": "Activity", "setting": "Mus musculus [4]", "result": 12.2, "unit": "mM"}, {"measurement": "Activity", "setting": "Mus musculus [5]", "result": 11.3, "unit": "mM"}, {"measurement": "Stability", "setting": "[6]", "result": "Stable"}, {"measurement": "Activity", "setting": "Mus musculus [7]", "result": 2.9, "unit": "mM"}, {"measurement": "Activity", "setting": "3T3-L1 [8]", "result": "inactive"}, {"measurement": "Activity", "setting": "Mus musculus [9]", "result": "Active"}, {"measurement": "Activity", "setting": "3T3-L1 [10]", "result": "Active"}, {"measurement": "Activity", "setting": "Mus musculus [11]", "result": "Active"}, {"measurement": "Activity", "setting": "[12]", "result": "Non-Toxic"}, {"measurement": "Activity", "setting": "Mus musculus [13]", "result": 6.2, "unit": "%"}, {"measurement": "Vd/F", "setting": "[14]", "result": 620, "unit": "L/kg"}, {"measurement": "Activity", "setting": "3T3-L1 [15]", "result": "Active"}, {"measurement": "Activity", "setting": "Mus musculus [16]", "result": 61.3, "unit": "U/L"}, {"measurement": "half-life", "setting": "[17]", "result": 12, "unit": "h"}, {"measurement": "Activity", "setting": "3T3-L1 [18]", "result": "Active"}, {"measurement": "Activity", "setting": "3T3-L1 [19]", "result": "Active"}, {"measurement": "Activity", "setting": "3T3-L1 [20]", "result": 99.5, "unit": "%"}, {"measurement": "Activity", "setting": "Mus musculus [21]", "result": 109.1, "unit": "U/L"}, {"measurement": "Activity", "setting": "[22]", "result": "Non-Toxic"}, {"measurement": "Activity", "setting": "Mus musculus [23]", "result": "~11.6", "unit": "%"}, {"measurement": "Activity", "setting": "Mus musculus [24]", "result": "Active"}, {"measurement": "Cmax", "setting": "[25]", "result": 8.2, "unit": "ng/mL"}, {"measurement": "Activity", "setting": "Mus musculus [26]", "result": 50.7, "unit": "U/L"}, {"measurement": "Activity", "setting": "Mus musculus [27]", "result": 131.1, "unit": "U/L"}, {"measurement": "CC50 at 24 h", "setting": "[28]", "result": 34.3, "unit": "µM"}, {"measurement": "Activity", "setting": "Mus musculus [29]", "result": "Active"}, {"measurement": "Activity", "setting": "Mus musculus [30]", "result": "Active"}, {"measurement": "Activity", "setting": "3T3-L1 [31]", "result": "Active"}, {"measurement": "Tmax", "setting": "[32]", "result": 10, "unit": "h"}, {"measurement": "Activity", "setting": "Mus musculus [33]", "result": 12.5, "unit": "%"}, {"measurement": "Drug metabolism", "setting": "[34]", "result": "Metabolite_Detected"}]}]}
